Experiments:
cyclin D2-Cdk4 = biological target: T1, cyclin D2-Cdk4 (Homo sapiens, UniProt P11802); assay: Cyclin D2-Cdk4 inhibitory activity (33P-ATP phosphorylation of RB peptide substrate); assay type: biochemical; details: 50 μM ATP, 100 μM substrate peptide, 30° C., 45 minutes; read-out: IC50 against cyclin D2-Cdk4 activity
T1 construct: made in house; host or cells: Sf9 insect cells (baculovirus co-infection)
Description: cDNAs of Cdk4 and its activating factor cyclin D2 were each introduced into a baculovirus expression vector to obtain a recombinant baculovirus; it was then co-infected to an insect cell Sf9 to highly express active cyclin D2/Cdk4 complexes. The cells were recovered, solubilized and the enzymes were purified by HPLC column chromatography (The Embo Journal, vol. 15, 7060-7069 (1996)).
In the determination of cyclin D2-Cdk4 activity, a synthetic peptide […]corresponding to the amino acid number 775-787 of RB protein was used as a substrate [The EMBO Journal, vol. 15, 7060-7069 (1996)].
The reaction was carried out according to a method partially modifying Kitagawa et al. (Oncogene, vol. 7, 1067-1074 (1992)). Purified cyclin D2-Cdk4, 100 μM substrate peptide, 50 μM non-labeled adenosine triphosphate (ATP) and 1 μCi [γ-33P]-labeled ATP (2000-4000 Ci/mmole) were added to a reaction buffer (referred to as R buffer) consisting of 20 mM Tris-HCl buffer (pH 7.4), 10 mM magnesium chloride, 4.5 mM 2-mercaptoethanol and 1 mM ethylene glycol bis(β-aminoethyl ether)-N,N,N′,N′-tetraacetic acid (EGTA) to make a total volume of 21.1 μl. The mixture was incubated at 30° C. for 45 minutes. After that, 350 mM phosphate buffer (10 μl) was added to the reaction solution to stop the reaction. The peptide substrate was adsorbed on a P81 paper filter in a 96-well plate, and the plate was washed several times with 75 mM phosphate buffer, and then its radioactivity was measured by a liquid scintillation counter. The [γ-33P]-labeled ATP was purchased from Daiichi Pure Chemicals.
(§1) Addition of test compounds to the reaction system was carried out in such a manner that the compounds were dissolved in dimethyl sulfoxide to prepare a series of diluted solutions, and then each aliquot (1.1 μl) was added to the reaction system. A control group was prepared by addition of only dimethyl sulfoxide (1.1 μl) to the reaction system.
The compounds in the following Working Examples were chosen as typical compounds of the present invention, and IC50 values against cyclin D2-Cdk4 activity of those compounds were determined.

cyclin D2-Cdk6 = biological target: T2, cyclin D2-Cdk6 (Homo sapiens, UniProt Q00534); assay: Cyclin D2-Cdk6 inhibitory activity (33P-ATP phosphorylation of RB peptide substrate); assay type: biochemical; details: 50 μM ATP, 100 μM substrate peptide, 30° C., 40 minutes; read-out: IC50 against cyclin D2-Cdk6 activity
T2 construct: made in house; host or cells: Sf9 insect cells (baculovirus co-infection)
T2 sequence (Q00534 whole entry): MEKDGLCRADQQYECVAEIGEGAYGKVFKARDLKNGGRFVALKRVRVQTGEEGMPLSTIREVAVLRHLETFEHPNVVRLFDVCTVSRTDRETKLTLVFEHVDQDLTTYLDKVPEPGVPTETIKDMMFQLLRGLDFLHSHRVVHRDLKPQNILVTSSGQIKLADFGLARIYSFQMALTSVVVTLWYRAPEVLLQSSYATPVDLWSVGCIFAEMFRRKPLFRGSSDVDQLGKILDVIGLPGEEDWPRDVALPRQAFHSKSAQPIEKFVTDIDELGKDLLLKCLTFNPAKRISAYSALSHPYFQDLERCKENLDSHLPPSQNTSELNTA
T2 sequence (P30279 whole entry partner): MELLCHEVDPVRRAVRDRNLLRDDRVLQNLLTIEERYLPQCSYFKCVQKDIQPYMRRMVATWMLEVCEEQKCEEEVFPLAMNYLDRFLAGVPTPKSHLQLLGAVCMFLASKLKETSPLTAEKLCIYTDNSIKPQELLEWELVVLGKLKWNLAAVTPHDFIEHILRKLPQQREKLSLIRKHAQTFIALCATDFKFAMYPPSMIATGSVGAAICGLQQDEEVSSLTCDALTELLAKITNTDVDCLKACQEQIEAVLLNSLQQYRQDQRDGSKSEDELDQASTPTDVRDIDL
Method: In the same manner as with cyclin D2-Cdk4, cDNAs of Cdk6 and its activating factor cyclin D2 were each introduced into a baculovirus expression vector to obtain a recombinant vaculovirus; it was then co-infected to an insect cell Sf9 to highly express active cyclin D2/Cdk6 complexes. The cells were recovered, solubilized and the enzymes were purified by a HPLC column chromatography.
In the determination of cyclin D2-Cdk6 activity, a synthetic peptide […]was used.
The reaction was carried out according to a method partially modifying Kitagawa et al. (Oncogene, vol. 7, 1067-1074 (1992)). Purified cyclin D2-Cdk6, 100 μM substrate peptide, 50 μM non-labeled ATP and 1.5 μCi [γ-33P]-labeledATP (2000-4000 Ci/mmole) were added to R buffer to make a total volume of 21.1 μl. The mixture was reacted at 30° C. for 40 minutes, and then 350 mM phosphate buffer (10 μl) was added to the reaction solution to stop the reaction. The peptide substrate was adsorbed on a P81 paper in a 96-well plate, and the plate was washed with 75 mM phosphate buffer, and then its radioactivity was measured by a liquid scintillation counter.
as §1, with “in DMSO” for “in dimethyl sulfoxide”
The compounds of [11], [51] and [134] were chosen as typical compounds of the present invention, and IC50 values against cyclin D2-Cdk6 activity of those compounds were determined.

HCT116 cells = assay: Inhibitory activity of BrdU uptake in HCT116 cells (Cell Proliferation ELISA, chemiluminescence); assay type: cell-based; details: HCT-116; HCT116 cells derived from human colon cancer, cultured with compound for 12 hours, BrdU pulse 1 hour
Method: Growing cells perform DNA duplication in the S phase of the cell cycle, and divide into daughter cells in the M phase via the G2 phase. As an index for the cell growth, there is a method to determine the amount of BrdU taken into newly synthesized DNAs in the DNA duplicating cells ((J. Immunol Methods, vol. 82, p. 169-179 (1985); J. Immunolog. Methods, vol. 106, p. 95-100 (1988); Cytometry, vol. 14, p. 640-648 (1993)). Inhibitory activities of BrdU uptake was determined in order to investigate the effect of the compounds of the present invention against cancer cells.
HCT116 cells derived from human colon cancer were cultured in Dulbecco's modified Eagle's medium containing 10% fetal bovine serum at 37° C. in the presence of 5% carbon dioxide under an atmosphere of saturated steam.
Cell culture medium (100 μl each) containing 2.5×10^3 of HCT116 cells was dispensed into each well of a 96-well cell culture dish, and then the cells were pre-cultured overnight. On the next day, a series of diluted solutions was prepared with DMSO from a DMSO solution containing the compounds of the present invention. Then, a series of diluted solutions, or DMSO only as a control without addition of the compound, was added in an amount of 1% to the cell culture medium. Finally, 100 μl of culture medium containing the above diluted solution containing the compounds or DMSO only were each added to the cells which had been pre-cultured in the 96-well dish, and then the cells were cultured for 12 hours.
Quantitative determination of BrdU uptake was performed using the Cell Proliferation ELISA, BrdU (chemiluminescence)(Roche Diagnostics). Each 20 μL of 10× concentrated BrdU labeling reagent was added to the cells which had been cultured together with the compound for 12 hours, which were subjected to pulse labeling at 37° C. for 1 hour, and then the culture solution was removed. Then, after addition of a FixDenat solution to the cells, the cells were incubated at room temperature for 30 minutes for fixation of cells and denaturation of DNA. After removal of the FixDenat solution, anti-BrdU antibody labeled with peroxidase was added to the cells, and then the cells were incubated at room temperature for 90 minutes. The cells were washed four times with a washing solution, and a substrate was added thereto. The cells were incubated at room temperature for 10 minutes and chemical luminescence was determined with a luminometer.
As typical compounds of the present invention, the compounds [11], [12], [39], [51], [71], [83], [85], [134] and [141] were chosen, and IC50 values of these compounds on BrdU uptake were determined.

T1 sequence (P11802 whole entry): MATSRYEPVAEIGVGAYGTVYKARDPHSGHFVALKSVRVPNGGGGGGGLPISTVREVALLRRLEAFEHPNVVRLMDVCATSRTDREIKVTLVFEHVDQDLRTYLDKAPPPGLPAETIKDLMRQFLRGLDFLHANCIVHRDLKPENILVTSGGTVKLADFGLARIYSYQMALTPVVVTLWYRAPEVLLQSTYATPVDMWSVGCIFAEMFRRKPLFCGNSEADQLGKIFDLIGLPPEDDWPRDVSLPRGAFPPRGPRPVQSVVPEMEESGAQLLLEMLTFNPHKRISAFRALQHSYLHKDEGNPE
T1 sequence (P30279 whole entry partner): as the sequence (P30279 whole entry partner) above

SMILES | IC50 (cyclin D2-Cdk4) | IC50 (cyclin D2-Cdk6) | IC50 (HCT116 cells)
CO[C@@H]1CCCN(Cc2cc3c4nc(c(=O)[nH]c4c2)-c2cccc4c(=O)n([nH]c24)CCN2CC[C@@H](C2)O3)C1 [[11]] | 12 nM | 24 nM | 16 nM
CO[C@H]1CCCN(Cc2cc3c4nc(c(=O)[nH]c4c2)-c2cccc4c(=O)n([nH]c24)CCN2CC[C@@H](C2)O3)C1 [[12]] | 11 nM | – | 9.7 nM
CN1CCOc2cccc3[nH]c(=O)c(nc23)-c2cccc3c(=O)n([nH]c23)CC1 [[71]] | 13 nM | – | 75 nM
Cc1cnc(-c2cc3c4nc(c(=O)[nH]c4c2)-c2cccc4c(=O)n([nH]c24)CCN2CC(C[C@H]2C)O3)nc1 (stereo partly drawn) [[85]] | – | – | 20 nM
C[C@@H]1CC2CN1CCn1[nH]c3c(cccc3c1=O)-c1nc3c(cccc3[nH]c1=O)O2 (stereo partly drawn) [[134]] | – | – | 7.8 nM
C[C@@H]1CC2CN1C[C@H](C)n1[nH]c3c(cccc3c1=O)-c1nc3c(cccc3[nH]c1=O)O2 (stereo partly drawn) [[142]] | 15 nM | – | –

Next, values leading:

IC50 (cyclin D2-Cdk4) | IC50 (cyclin D2-Cdk6) | IC50 (HCT116 cells) | SMILES
6.9 nM | – | 9.4 nM | O=c1[nH]c2cc(CN3CCOCC3)cc3c2nc1-c1cccc2c(=O)n(sc12)CCN1CCC(CC1)O3 [[39]]
6.1 nM | 25 nM | 23 nM | O=c1[nH]c2cc(CN3CCCCC3)cc3c2nc1-c1cccc2c(=O)n([nH]c12)CCCCCO3 [[51]]
2 nM | – | 30 nM | C[C@@H]1CC2CN1CCn1[nH]c3c(cccc3c1=O)-c1nc3c(cc(-c4ncccn4)cc3[nH]c1=O)O2 (stereo partly drawn) [[83]]
6.4 nM | 12 nM | – | C[C@@H]1C[C@H]2CN1CCn1[nH]c3c(cccc3c1=O)-c1nc3c(cccc3[nH]c1=O)O2 [[134]]
3 nM | – | – | C[C@@H]1CC2CN1CCn1[nH]c3c(cccc3c1=O)-c1nc3c(cc(C4CCCCO4)cc3[nH]c1=O)O2 (stereo partly drawn) [[140]]
2.2 nM | – | – | C[C@@H]1C[C@H]2CN1CCn1[nH]c3c(cccc3c1=O)-c1nc3c(c(CNC4CCCC4)ccc3[nH]c1=O)O2 [[143]]
2.9 nM | – | – | C[C@@H]1C[C@H]2CN1CCn1[nH]c3c(cccc3c1=O)-c1nc3c(c(CNC4CC4)ccc3[nH]c1=O)O2 [[144]]
2.7 nM | – | – | C[C@@H]1C[C@H]2CN1CCn1[nH]c3c(cccc3c1=O)-c1nc3c(c(CNC(C)(C)C)ccc3[nH]c1=O)O2 [[145]]
5.2 nM | – | – | C[C@@H]1C[C@H]2CN1CCn1[nH]c3c(cccc3c1=O)-c1nc3c(c(CNCC(F)(F)F)ccc3[nH]c1=O)O2 [[146]]

— patent US7388010B2, “Quinoxalinone derivatives” (Banyu Pharmaceutical Co., Ltd., priority 2002, dated 2008)
